Results: ChEMBL document CHEMBL1126877, “Synthesis and anticonvulsant activities of alpha-heterocyclic alpha-acetamido-N-benzylacetamide derivatives” (J Med Chem, 1993)

Tests used:
Mus musculus [1] = species on record: Mus musculus; assay: Effective dose required for maximal electroshock (MES)-induced seizures in mice in experiment 2; format: functional
Mus musculus [2] = species on record: Mus musculus; assay: Effective dose required for maximal electroshock (MES)-induced seizures in mice in experiment 1; format: functional
[3] = (§1) Neurologic toxicity determined using horizontal screen test in mice; format: organism-based; conditions: mouse, in vivo
Mus musculus [4] = species on record: Mus musculus; assay: Effective dose required for maximal electroshock (MES)-induced seizures in mice.; format: functional
Mus musculus [5] = species on record: Mus musculus; assay: as §1; format: organism-based; conditions: in vivo
[6] = Protective index (TD50/ED50); format: functional
[7] = Neurologic toxicity determined using rotarod test in mice; format: organism-based; conditions: mouse, in vivo
[8] = Neurologic toxicity determined using horizontal screen test in mice in experiment 1; format: organism-based; conditions: mouse, in vivo
[9] = Neurologic toxicity determined using horizontal screen test in mice in experiment 2; format: organism-based; conditions: mouse, in vivo

CC(=O)NC(C(=O)NCc1ccccc1)c1nnn[nH]1 (centres undefined)
ED50 (Mus musculus [1]): < 100 mg/kg | ED50 (Mus musculus [2]): > 30 mg/kg

CC(=O)NC(C(=O)NCc1ccccc1)c1ccccc1 (centres undefined)
TD50 [3]: > 40 mg/kg

CC(=O)NC(C(=O)NCc1ccccc1)n1cccc1 (centres undefined)
ED50 (Mus musculus [4]; Mus musculus, read-out: ED50): 80.2 mg/kg

CC(=O)NC(C(=O)NCc1ccccc1)c1c[nH]cn1 (centres undefined)
ED50 (Mus musculus [4]; Mus musculus, read-out: ED50): > 100 mg/kg

CC(=O)NC(C(=O)NCc1ccc[n+]([O-])c1)c1ccco1 (centres undefined)
ED50 (Mus musculus [4]; Mus musculus, read-out: ED50): ~30 mg/kg

CC(=O)N[C@H](C(=O)NCc1ccccc1)c1ccco1 (stereo in doubt; (S)-4)
TD50 (Mus musculus [5]): > 200 mg/kg | ED50 (Mus musculus [4]): >25 mg/kg

CC(=O)NC(C(=O)NCc1ccccc1)c1ccsc1 (centres undefined)
TD50 [3]: > 100 mg/kg

CC(=O)NC(C(=O)NCc1cccnc1)c1ccco1 (centres undefined)
ED50 (Mus musculus [4]; Mus musculus, read-out: ED50): ~30 mg/kg

CC(=O)NC(C(=O)NCc1ccccc1)C1CCCO1 (centres undefined)
ED50 (Mus musculus [4]; Mus musculus, read-out: ED50): 89.8 mg/kg

CC(=O)N[C@H](C(=O)NCc1ccccc1)c1ccco1 (stereo in doubt; 4) [listing 1 of 2 here]
PI [6]: 3.9

CC(=O)NC(C(=O)NCc1ccccc1)c1ncc[nH]1 (centres undefined)
ED50 (Mus musculus [4]; Mus musculus, read-out: ED50): > 100 mg/kg

C/C(S)=N\C(C(=O)NCc1ccccc1)c1ccco1 (centres undefined)
ED50 (Mus musculus [4]; Mus musculus, read-out: ED50): 18.4 mg/kg

CC(=O)NC(C(=O)NCc1ccccc1)c1ncco1 (centres undefined)
ED50 (Mus musculus [4]; Mus musculus, read-out: ED50): 10.4 mg/kg | TD50 [7]: 38.6 mg/kg | PI [6]: 3.7

CC(=O)NC(C(=O)NCc1ccccc1)n1cncn1 (centres undefined)
ED50 (Mus musculus [1]): < 100 mg/kg | ED50 (Mus musculus [2]): > 30 mg/kg

CC(=O)NC(C(=O)NCc1ccccc1)n1ccnc1 (centres undefined)
ED50 (Mus musculus [4]; Mus musculus, read-out: ED50): > 100 mg/kg

CC(=O)NC(C(=O)NCc1ccccc1)n1cnnn1 (centres undefined)
ED50 (Mus musculus [4]; Mus musculus, read-out: ED50): > 300 mg/kg

CC(=O)NC(C(=O)NCc1ccccc1)n1cccn1 (centres undefined)
ED50 (Mus musculus [4]; Mus musculus, read-out: ED50): 16.5 mg/kg

CC(=O)NC(C(=O)NCc1ccccc1)c1ccco1 (centres undefined)
TD50 [3]: ~40 mg/kg | PI [6]: 3.9

CC(=O)NC(C(=O)NCc1ccncc1)c1ccco1 (centres undefined)
ED50 (Mus musculus [4]; Mus musculus, read-out: ED50): > 100 mg/kg

CC(=O)NC(C(=O)NCc1ccccc1)c1nc[nH]n1 (centres undefined)
ED50 (Mus musculus [4]; Mus musculus, read-out: ED50): > 100 mg/kg

CC(=O)NC(C(=O)NCc1ccccc1)c1cccs1 (centres undefined)
TD50 [8]: > 30 mg/kg | TD50 [9]: < 100 mg/kg

CC(=O)NC(C(=O)NCc1ccccc1)c1ncon1 (centres undefined)
ED50 (Mus musculus [1]): < 300 mg/kg | ED50 (Mus musculus [2]): > 100 mg/kg

CC(=O)NC(C(=O)NCc1cc[n+]([O-])cc1)c1ccco1 (centres undefined)
ED50 (Mus musculus [4]; Mus musculus, read-out: ED50): > 100 mg/kg

CC(=O)N[C@H](C(=O)NCc1ccc(C(F)(F)F)cc1)c1ccco1
ED50 (Mus musculus [4]; Mus musculus, read-out: ED50): 22.8 mg/kg

CC(=O)NC(C(=O)NCc1ccc(F)cc1)c1ccco1 (centres undefined)
PI [6]: 11.3

CC(=O)N[C@H](C(=O)NCc1ccccc1)c1ccco1 (stereo in doubt; 4) [listing 2 of 2 here]
TD50 (Mus musculus [5]): ~ 40 mg kg-1 | ED50 (Mus musculus [4]): 10.3 mg/kg

CC(=O)N[C@@H](C(=O)NCc1ccc(F)cc1)c1ccco1
TD50 [3]: 14.4 mg/kg | ED50 (Mus musculus [4]; Mus musculus, read-out: ED50): 3.5 mg/kg | PI [6]: 4.1

CC(=O)NC(C(=O)NCc1ccccc1)c1ccc[nH]1 (centres undefined)
TD50 [8]: > 30 mg/kg | TD50 [9]: < 100 mg/kg

CC(=O)N[C@H](C(=O)NCc1ccc(C)cc1)c1ccco1
ED50 (Mus musculus [4]; Mus musculus, read-out: ED50): 43.6 mg/kg

CC(=O)N[C@@H](C(=O)NCc1ccccc1)c1ccco1
ED50 (Mus musculus [4]; Mus musculus, read-out: ED50): 3.3 mg/kg | PI [6]: 7.2

CC(=O)NC(C(=O)NNc1ccccn1)c1ccco1 (centres undefined)
ED50 (Mus musculus [4]; Mus musculus, read-out: ED50): > 100 mg/kg

C/C(S)=N/C(/C(S)=N/Cc1ccccc1)c1ccco1 (centres undefined)
ED50 (Mus musculus [4]; Mus musculus, read-out: ED50): > 100 mg/kg

CC(=O)NC(C(=O)NCc1ccccc1)c1nccs1 (centres undefined)
ED50 (Mus musculus [4]; Mus musculus, read-out: ED50): 12.1 mg/kg | TD50 [7]: 69.1 mg/kg | PI [6]: 5.7

CC(=O)NC(C)(C(=O)NCc1ccccc1)c1ccco1 (centres undefined)
ED50 (Mus musculus [4]; Mus musculus, read-out: ED50): > 300 mg/kg
